Read-outs that look alike come from different tables or passages of the source.
Test: Phase 1 SRD/multiple-rising dose (MRD, Part 2) plasma PK in healthy subjects
Type: in vivo, human
Settings: for Vd/F: read-out: Vz/F
Procedure: The study was designed to assess the safety, tolerability, PK, and PD of COMPOUND A. A total of 88 subjects were enrolled in 6 SRD and 5 SRD/MRD cohorts (n=8 per cohort). The study was composed of 2 parts.
In Part 2 of the study (SRD/MRD cohorts), a single oral tablet dose of COMPOUND A (0.3, 1, 3, 6, or 9 mg) or matching placebo was administered on Day 1 followed by safety, tolerability, PK, and PD assessments. Study drug (at the same dose level) was then administered once daily (QD) for 13 days, on […]. Each cohort of 8 subjects (6 active: 2 placebo) were administered study drug sequentially to ensure adequate safety and tolerability before administering the next dose level. Neither sentinel nor staggered dosing was used for the SRD/MRD cohorts. Subjects were confined in the study unit for 21 days, from Check-in on Day −1 until 72 hours after the last dose of study drug.
For all cohorts in Parts 1 and 2, serial PK blood samples were collected pre- and post-dose on Day 1 to measure plasma concentrations of COMPOUND A and its metabolites. For all SRD/MRD cohorts in Part 2, urine samples were collected pre- and post-dose on Day 1 and post-dose on Day 18 to measure concentrations of COMPOUND A and its metabolites.
For Part 1 of the study, all 36 subjects who received COMPOUND A were included in the PK set. For Part 2 of the study, all 30 subjects who received COMPOUND A were included in the PK set.
Referring now to FIG. 3, mean plasma concentration-time profiles (linear and semilog scales) of COMPOUND A were determined on Day 18 following oral administration of COMPOUND A QD for 13 days.

[1] = 0.3 mg QD cohort, Study Day 1, mean
[2] = 1 mg QD cohort, Study Day 1, mean
[3] = 3 mg QD cohort, Study Day 1, mean
[4] = 6 mg QD cohort, Study Day 1, mean
[5] = 9 mg QD cohort, Study Day 1, mean
[6] = both sexes, human, plasma, oral, 0.3 mg QD cohort, Study Day 1, mean
[7] = both sexes, human, plasma, oral, 1 mg QD cohort, Study Day 1, mean
[8] = both sexes, human, plasma, oral, 3 mg QD cohort, Study Day 1, mean
[9] = both sexes, human, plasma, oral, 6 mg QD cohort, Study Day 1, mean
[10] = both sexes, human, plasma, oral, 9 mg QD cohort, Study Day 1, mean

For `CC1=CN2CCS(=O)(=O)N=C2C(c2ccc(OC3CCCCC3)cc2)=N1` [COMPOUND A, 9-[4-(Cyclohexyloxy)phenyl]-7-methyl-3,4-dihydropyrazino[2,1-c][1,2,4]thiadiazine 2,2-dioxide], the CL/F [1] was 2.38 L/h, the t1/2z [1] was 37.1 h and the “Cav, ss” value (0.3 mg QD, Study Day 18, mean) was 6.27 ng/mL. The CL/F [2] was 2.35 L/h, the t1/2z [2] was 42.4 h and the “Cav, ss” value (1 mg QD, Study Day 18, mean) was 20.9 ng/mL. The CL/F [3] was 1.81 L/h, the t1/2z [3] was 52.6 h and the “Cav, ss” value (3 mg QD, Study Day 18, mean) was 81.1 ng/mL. For the same molecule, the CL/F [4] was 3.25 L/h, the t1/2z [4] was 36.0 h and the “Cav, ss” value (6 mg QD, Study Day 18, mean, n = 5) was 122 ng/mL. For the same molecule, the CL/F [5] was 2.17 L/h, the t1/2z [5] was 49.9 h and the “Cav, ss” value (9 mg QD, Study Day 18, mean) was 192 ng/mL. It also gave an AUC (both sexes, human, plasma, oral, 0.3 mg, 0.3 mg QD cohort, Study Day 1, mean, read-out: AUC24) of 48 ng·h/mL, a Cmax (both sexes, human, plasma, oral, 0.3 mg, 0.3 mg QD cohort, Study Day 1, mean, read-out: Cmax) of 2.93 ng/mL and a Tmax (both sexes, human, plasma, oral, 0.3 mg, 0.3 mg QD cohort, Study Day 1, median, read-out: tmax) of 1.25 h. It also gave an AUC (both sexes, human, plasma, oral, 0.3 mg, 0.3 mg QD, Study Day 6, mean, read-out: AUC24) of 51.8 ng·h/mL, a Cmax (both sexes, human, plasma, oral, 0.3 mg, 0.3 mg QD, Study Day 6, mean, read-out: Cmax) of 3.07 ng/mL and a Tmax (both sexes, human, plasma, oral, 0.3 mg, 0.3 mg QD, Study Day 6, median, read-out: tmax) of 1.5 h. The AUC (both sexes, human, plasma, oral, 0.3 mg, 0.3 mg QD, Study Day 18, mean, read-out: AUCτ) was 151 ng·h/mL, the Cmax (both sexes, human, plasma, oral, 0.3 mg, 0.3 mg QD, Study Day 18, mean, read-out: Cmax, ss) was 7.87 ng/mL and the Tmax (both sexes, human, plasma, oral, 0.3 mg, 0.3 mg QD, Study Day 18, median, read-out: tmax) was 2.5 h. For the same molecule, the AUC (both sexes, human, plasma, oral, 1 mg, 1 mg QD cohort, Study Day 1, mean, read-out: AUC24) was 138 ng·h/mL, the Cmax (both sexes, human, plasma, oral, 1 mg, 1 mg QD cohort, Study Day 1, mean, read-out: Cmax) was 7.82 ng/mL and the Tmax (both sexes, human, plasma, oral, 1 mg, 1 mg QD cohort, Study Day 1, median, read-out: tmax) was 4 h. The AUC (both sexes, human, plasma, oral, 1 mg, 1 mg QD, Study Day 6, mean, read-out: AUC24) was 162 ng·h/mL, the Cmax (both sexes, human, plasma, oral, 1 mg, 1 mg QD, Study Day 6, mean, read-out: Cmax) was 10 ng/mL and the Tmax (both sexes, human, plasma, oral, 1 mg, 1 mg QD, Study Day 6, median, read-out: tmax) was 1 h. The AUC (both sexes, human, plasma, oral, 1 mg, 1 mg QD, Study Day 18, mean, read-out: AUCτ) was 503 ng·h/mL, the Cmax (both sexes, human, plasma, oral, 1 mg, 1 mg QD, Study Day 18, mean, read-out: Cmax, ss) was 24.9 ng/mL and the Tmax (both sexes, human, plasma, oral, 1 mg, 1 mg QD, Study Day 18, median, read-out: tmax) was 4.5 h. The AUC (both sexes, human, plasma, oral, 3 mg, 3 mg QD cohort, Study Day 1, mean, read-out: AUC24) was 480 ng·h/mL, the Cmax (both sexes, human, plasma, oral, 3 mg, 3 mg QD cohort, Study Day 1, mean, read-out: Cmax) was 28.7 ng/mL and the Tmax (both sexes, human, plasma, oral, 3 mg, 3 mg QD cohort, Study Day 1, median, read-out: tmax) was 1.5 h. The AUC (both sexes, human, plasma, oral, 3 mg, 3 mg QD, Study Day 6, mean, read-out: AUC24) was 594 ng·h/mL, the Cmax (both sexes, human, plasma, oral, 3 mg, 3 mg QD, Study Day 6, mean, read-out: Cmax) was 34.7 ng/mL and the Tmax (both sexes, human, plasma, oral, 3 mg, 3 mg QD, Study Day 6, median, read-out: tmax) was 1.54 h. It also gave an AUC (both sexes, human, plasma, oral, 3 mg, 3 mg QD, Study Day 18, mean, read-out: AUCτ) of 1950 ng·h/mL, a Cmax (both sexes, human, plasma, oral, 3 mg, 3 mg QD, Study Day 18, mean, read-out: Cmax, ss) of 100 ng/mL and a Tmax (both sexes, human, plasma, oral, 3 mg, 3 mg QD, Study Day 18, median, read-out: tmax) of 4 h. It also gave an AUC (both sexes, human, plasma, oral, 6 mg, 6 mg QD cohort, Study Day 1, mean, read-out: AUC24) of 767 ng·h/mL, a Cmax (both sexes, human, plasma, oral, 6 mg, 6 mg QD cohort, Study Day 1, mean, read-out: Cmax) of 42 ng/mL and a Tmax (both sexes, human, plasma, oral, 6 mg, 6 mg QD cohort, Study Day 1, median, read-out: tmax) of 5 h. The AUC (both sexes, human, plasma, oral, 6 mg, 6 mg QD, Study Day 6, mean, n = 5, read-out: AUC24) was 784 ng·h/mL, the Cmax (both sexes, human, plasma, oral, 6 mg, 6 mg QD, Study Day 6, mean, read-out: Cmax) was 50.2 ng/mL and the Tmax (both sexes, human, plasma, oral, 6 mg, 6 mg QD, Study Day 6, median, read-out: tmax) was 5 h. The AUC (both sexes, human, plasma, oral, 6 mg, 6 mg QD, Study Day 18, mean, n = 5, read-out: AUCτ) was 2930 ng·h/mL, the Cmax (both sexes, human, plasma, oral, 6 mg, 6 mg QD, Study Day 18, mean, n = 5, read-out: Cmax, ss) was 148 ng/mL and the Tmax (both sexes, human, plasma, oral, 6 mg, 6 mg QD, Study Day 18, median, n = 5, read-out: tmax) was 3.05 h. It also gave an AUC (both sexes, human, plasma, oral, 9 mg, 9 mg QD cohort, Study Day 1, mean, read-out: AUC24) of 1410 ng·h/mL, a Cmax (both sexes, human, plasma, oral, 9 mg, 9 mg QD cohort, Study Day 1, mean, read-out: Cmax) of 78.4 ng/mL and a Tmax (both sexes, human, plasma, oral, 9 mg, 9 mg QD cohort, Study Day 1, median, read-out: tmax) of 4.51 h. For the same molecule, the AUC (both sexes, human, plasma, oral, 9 mg, 9 mg QD, Study Day 6, mean, read-out: AUC24) was 1570 ng·h/mL, the Cmax (both sexes, human, plasma, oral, 9 mg, 9 mg QD, Study Day 6, mean, read-out: Cmax) was 82 ng/mL and the Tmax (both sexes, human, plasma, oral, 9 mg, 9 mg QD, Study Day 6, median, read-out: tmax) was 4 h. It also gave an AUC (both sexes, human, plasma, oral, 9 mg, 9 mg QD, Study Day 18, mean, read-out: AUCτ) of 4600 ng·h/mL, a Cmax (both sexes, human, plasma, oral, 9 mg, 9 mg QD, Study Day 18, mean, read-out: Cmax, ss) of 243 ng/mL and a Tmax (both sexes, human, plasma, oral, 9 mg, 9 mg QD, Study Day 18, median, read-out: tmax) of 3 h. For the same molecule, the AUC (both sexes, human, plasma, oral, Day 18, range over the 0.3 to 9 mg QD dose range, read-out: mean AUCτ) was 151 to 4600 ng·h/mL, the concentration at 18 day (both sexes, human, plasma, oral, Day 18, range over the 0.3 to 9 mg QD dose range, read-out: mean Cav,ss) was 6.27 to 192 ng/mL and the Cmax (both sexes, human, plasma, oral, Day 18, range over the 0.3 to 9 mg QD dose range, read-out: mean plasma Cmax,ss) was 7.86 to 243 ng/mL. It also gave an AUC(0-inf) [6] of 133 ng·h/mL, an AUC(0-t) [6] of 118 ng·h/mL and a Vd/F [6] of 121 L. For the same molecule, the AUC(0-inf) [7] was 470 ng·h/mL, the AUC(0-t) [7] was 394 ng·h/mL and the Vd/F [7] was 133 L. For the same molecule, the AUC(0-inf) [8] was 1870 ng·h/mL, the AUC(0-t) [8] was 1470 ng·h/mL and the Vd/F [8] was 126 L. The AUC(0-inf) [9] was 2330 ng·h/mL, the AUC(0-t) [9] was 1960 ng·h/mL and the Vd/F [9] was 145 L. For the same molecule, the AUC(0-inf) [10] was 5760 ng·h/mL, the AUC(0-t) [10] was 4430 ng·h/mL and the Vd/F [10] was 119 L. For the same molecule, the Tmax (both sexes, human, plasma, po, 9 mg, oral QD 0.3, 1, 3, 6, 9 mg, range over the dose range, read-out: median tmax) was 2.5 to 4 h and the attainment of steady-state (oral QD 0.3-9 mg from Day 6) was “appeared to reach steady-state on Day 18”.

Source: US20230338391A1, “TREATMENT FOR DEPRESSION” (TAKEDA PHARMACEUTICAL COMPANY LIMITED, priority 2020, published 2023)
